Results as given in ChEMBL document CHEMBL1147038, “Structural basis for the specific inhibition of protein kinase G, a virulence factor of Mycobacterium tuberculosis” (Proc Natl Acad Sci U S A, 2007).
Activity calls are given as the source filed them. No cut-off for these calls is given here.

Tests used:
[1] = molecular target: Serine/threonine-protein kinase PknG (Mycobacterium tuberculosis) (UniProt P9WI73); experiment: Inhibition of Mycobacterium tuberculosis Protein kinase G by radiometric ATP consumptive assay
Sequence of Serine/threonine-protein kinase PknG (Mycobacterium tuberculosis) (P9WI73 whole entry): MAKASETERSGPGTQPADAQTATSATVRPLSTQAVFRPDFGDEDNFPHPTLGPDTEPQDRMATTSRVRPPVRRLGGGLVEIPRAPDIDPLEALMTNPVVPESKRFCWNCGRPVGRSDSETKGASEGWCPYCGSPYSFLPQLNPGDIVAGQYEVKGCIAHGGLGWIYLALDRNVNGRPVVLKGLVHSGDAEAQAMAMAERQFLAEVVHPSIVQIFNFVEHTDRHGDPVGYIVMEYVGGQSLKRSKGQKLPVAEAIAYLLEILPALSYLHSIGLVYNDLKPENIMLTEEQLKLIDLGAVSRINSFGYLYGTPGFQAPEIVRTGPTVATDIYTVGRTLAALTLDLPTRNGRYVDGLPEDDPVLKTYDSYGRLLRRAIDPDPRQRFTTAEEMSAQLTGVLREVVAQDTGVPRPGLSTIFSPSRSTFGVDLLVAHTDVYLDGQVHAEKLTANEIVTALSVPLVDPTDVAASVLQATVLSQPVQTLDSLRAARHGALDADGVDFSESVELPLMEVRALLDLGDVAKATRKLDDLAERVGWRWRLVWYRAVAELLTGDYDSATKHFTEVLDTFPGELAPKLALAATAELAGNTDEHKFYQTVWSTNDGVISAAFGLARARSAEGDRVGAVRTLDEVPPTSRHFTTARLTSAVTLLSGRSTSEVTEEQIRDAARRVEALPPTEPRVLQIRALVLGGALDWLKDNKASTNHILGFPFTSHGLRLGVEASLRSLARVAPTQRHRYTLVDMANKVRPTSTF

J774 [2] = experiment: Effect on Phorbol 12-myristate 13-acetate-induced cellular morphology in mouse J774 macrophage cells at 20 uM by video microscopy; format: functional, cell-based
J774 [3] = experiment: Effect on Phorbol 12-myristate 13-acetate-induced membrane ruffling in mouse J774 macrophage cells at 20 uM by video microscopy; format: functional, cell-based
J774 [4] = experiment: Effect on Phorbol 12-myristate 13-acetate-induced macropinocytosis in mouse J774 macrophage cells at 20 uM by video microscopy; format: functional, cell-based

NC(=O)c1c(NC(=O)C2CC2)sc2c1CCCC2
Activity [1]: Active
Activity (J774 [2]): inactive
Activity (J774 [3]): inactive
Activity (J774 [4]): inactive
